Assay results from US4220637A (Agence Nationale de Valorisation de la Recherche, priority 1976, dated 1980).

Tested on: rabbits
Experiment: pyrogenic effect test on rabbits (Pharmacopee Francaise, 9th edition, II-235)
Format: in vivo

CC(=O)N[C@H]1C(O)O[C@H](CO)[C@@H](O)[C@@H]1O[C@H](C)C(=O)N[C@@H](C)C(=O)N[C@H](CCC(N)=O)C(N)=O (stereo partly drawn) [Mur-NAc-L-Ala-D-Glu(NH2)--NH2, diamide of the 2-(2-acetamido-2-deoxy-3-O-D-glucopyranosyl)-D-propionyl-L-alanyl-D-glutamic acid]
increase of temperature (2 mg/kg, sub-cutaneously and intravenously): did not induce any increase of temperature | pyrogenic effect (Pharmacopee Francaise protocol): fully devoid of any pyrogenic effect
